PMC5433425 (PeerJ, 2017)
Values joined by “and” are separate entries in the source; they are usually repeats but may differ in a detail not shown here. Equal entries are not always repeated. Peptide text beside a SMILES is read from it. * marks the point of attachment. βNA = c1ccc2cc(N*)ccc2c1

Legend:
[1] = system: E. coli AG100tet; test: EtBr accumulation by real-time fluorometry; conditions: EtBr 2 µg/ml + inhibitor 80 µM
[2] = system: E. coli K-12 AG100 (wild-type); test: MIC, broth microdilution; format: cell-based; conditions: Escherichia coli

Structure (SMILES): NC(N)=NCCC[C@H](NC(=O)[C@@H](N)Cc1ccccc1)C(=O)Nc1ccc2ccccc2c1 [PAβN] (H-Phe-Arg-βNA)
- EtBr fluorescence ([1]; cycle 1): 11.1278
- EtBr fluorescence ([1]; cycle 2): 12.695
- EtBr fluorescence ([1]; cycle 3): 14.0098
- EtBr fluorescence ([1]; cycle 4): 14.9916
- EtBr fluorescence ([1]; cycle 5): 15.9316
- EtBr fluorescence ([1]; cycle 6): 16.6928
- EtBr fluorescence ([1]; cycle 7): 17.1135
- EtBr fluorescence ([1]; cycle 8): 17.7313
- EtBr fluorescence ([1]; cycle 9): 18.0085
- EtBr fluorescence ([1]; cycle 10): 18.4427
- EtBr fluorescence ([1]; cycle 11): 18.7463
- EtBr fluorescence ([1]; cycle 12): 18.8264
- EtBr fluorescence ([1]; cycle 13): 19.2404
- EtBr fluorescence ([1]; cycle 14): 19.2594
- EtBr fluorescence ([1]; cycle 15): 19.2787
- EtBr fluorescence ([1]; cycle 16): 19.7369
- EtBr fluorescence ([1]; cycle 17): 19.738
- EtBr fluorescence ([1]; cycle 18): 20.2008
- EtBr fluorescence ([1]; cycle 19): 19.7958
- EtBr fluorescence ([1]; cycle 20): 20.1672
- EtBr fluorescence ([1]; cycle 21): 20.6387
- EtBr fluorescence ([1]; cycle 22): 20.6639
- EtBr fluorescence ([1]; cycle 23): 21.3214
- EtBr fluorescence ([1]; cycle 24): 21.3175
- EtBr fluorescence ([1]; cycle 25): 21.5239
- EtBr fluorescence ([1]; cycle 26): 21.9663
- EtBr fluorescence ([1]; cycle 27): 22.3215
- EtBr fluorescence ([1]; cycle 28): 22.6925
- EtBr fluorescence ([1]; cycle 29): 23.1641
- EtBr fluorescence ([1]; cycle 30): 23.4062
- MIC [2]: > 200 µg/mL and > 385 µM
